The values below come from ChEMBL document CHEMBL3763101, “Gibbilimbol analogues as antiparasitic agents--Synthesis and biological activity against Trypanosoma cruzi and Leishmania (L.) infantum” (Bioorg Med Chem Lett, 2016).

Data set [1] in a line: Selectivity index, ratio of CC50 for mouse […] cells to IC50 for Trypanosoma cruzi Y trypomastigotes. Type of data set: functional.
The nature of data set [2]: Selectivity index, ratio of CC50 for mouse […] cells to IC50 for Leishmania infantum promastigotes. Type of data set: functional, NCTC-929.
Data set [3] relates to Trypanosoma cruzi. Description: Antiparasitic activity against amastigote stage of Trypanosoma cruzi Y. Type of data set: functional, organism-based.
Data set [4] concerns Trypanosoma cruzi. In words: Antiparasitic activity against trypomastigote stage of Trypanosoma cruzi Y assessed as parasite viability after 24 hrs by MTT assay. Type of data set: functional, organism-based. Background: Tetrazolium assays rely on reduction of a dye to a coloured formazan, in cell work by metabolically active cells.
Data set [5] relates to Leishmania infantum. In words: Antiparasitic activity against promastigote stage of Leishmania infantum assessed as parasite viability after 24 hrs by MTT assay. Type of data set: functional, organism-based.
Data set [6] in a line: Cytotoxicity against mouse NCTC-929 cells assessed as cell viability after 48 hrs by MTT assay. Type of data set: cell-based.
In data set [7] the test system is Leishmania infantum. In words: Antiparasitic activity against amastigote stage of Leishmania infantum infected in BALB/c mouse peritoneal macrophages assessed as reduction of parasite burden after 120 hrs by Giemsa staining-based light microscopic analysis. Type of data set: functional, organism-based.
A short description of data set [8]: Selectivity index, ratio of CC50 for mouse […] cells to IC50 for Leishmania infantum amastigotes. Type of data set: functional.
Data set [9] can be described thus: Selectivity index, ratio of CC50 for mouse […] cells to IC50 for Trypanosoma cruzi Y amastigotes. Type of data set: functional.
For data set [10], the system named is Leishmania infantum. Description: Potency index, ratio of gibbilimbol B IC50 to compound IC50 for amastigote stage of Leishmania infantum infected in BALB/c mouse peritoneal macrophages. Type of data set: functional.
Setting [11] is: Trypanosoma cruzi, Y, 24 h, read-out: IC50.
The mark [12] stands for this setting: Leishmania infantum, 24 h, read-out: IC50.
Where [13] appears, read: Trypanosoma cruzi, Y, read-out: IC50.
Setting [14] is: Leishmania infantum, 120 h, read-out: IC50.

With `CCCCCCCCOC(=O)c1ccc(O)cc1`, the “Ratio CC50/IC50” value in data set [1] stood at 29; in data set [2] it was 1.1. Besides, the 50% inhibitory concentration (IC50) – broadly, the concentration at which inhibition is half-maximal – in the data set with Trypanosoma cruzi [3] is “Not Active”; in the data set with Trypanosoma cruzi [4] (setting [11]), 4.5 µM; in the data set on Leishmania infantum [5] (setting [12]), 123 µM; in the data set with Leishmania infantum [7], “Not Active”. In addition, in data set [6], the cytotoxic concentration (CC50) (in general, the concentration giving 50% cytotoxicity) at 48 h is 130 µM.

`CCCCNCc1ccc(O)cc1`: in data set [2], the “Ratio CC50/IC50” value is recorded as >9.5. Besides, the half-maximal inhibitory concentration (IC50) entry was “Not Active” in the data set on Trypanosoma cruzi [3], “Not Active” in the data set with Trypanosoma cruzi [4], 31.6 µM with Leishmania infantum [5] (setting [12]) and “Not Active” in the data set on Leishmania infantum [7]. Moreover, in data set [6], the half-maximal cytotoxic concentration (CC50) at 48 h was > 300 µM.

On to `O=C(Cn1ccnc1[N+](=O)[O-])NCc1ccccc1` [BENZNIDAZOLE], for which, in the data set with Trypanosoma cruzi [3] (setting [13]), the IC50 amounted to 230 µM. The CC50 at 48 h in [6] turned out to be 270 µM.

Turning to `CCCCCCCCCCCCCCCCOP(=O)([O-])OCC[N+](C)(C)C` [MILTEFOSINE], the “Ratio CC50/IC50” value in [8] is reported as 14.7; in [2] it was 14.5. The IC50 with Leishmania infantum [5] (setting [12]) turned out to be 16.7 µM; in the data set with Leishmania infantum [7] (setting [14]), 16.4 µM. In data set [6], the CC50 at 48 h is 241 µM.

Take `CCCCCCCC(=O)/C=C/c1ccc(O)cc1`: the entries for the “Ratio CC50/IC50” value in [1], in [2] and in data set [9] were 7, 1 and 3.7, respectively. Besides, the IC50 is 22.5 µM in the data set on Trypanosoma cruzi [3] (setting [13]), 11.8 µM in the data set on Trypanosoma cruzi [4] (setting [11]), 82.7 µM in the data set on Leishmania infantum [5] (setting [12]) and “Not Active” in the data set on Leishmania infantum [7]. In addition, the 50% cytotoxic concentration (CC50) at 48 h in data set [6] turned out to be 82.8 µM.

Regarding `CCCCCCCCNC(=O)c1ccc(O)cc1`, the “Ratio CC50/IC50” value was 1.7 in [1] and 1 in data set [2]. In addition, the IC50 entry was “Not Active” in the data set on Trypanosoma cruzi [3], 26.5 µM in the data set with Trypanosoma cruzi [4] (setting [11]), 45.1 µM in the data set with Leishmania infantum [5] (setting [12]) and “Not Active” in the data set on Leishmania infantum [7]. Besides, the CC50 at 48 h in [6] was 45.4 µM.

In the case of `CCCCCCCC/N=C/c1ccc(O)cc1`, the “Ratio CC50/IC50” value in data set [2] was found to be 5. In addition, the concentration for half-maximal inhibition (IC50) result was “Not Active” with Trypanosoma cruzi [3], “Not Active” in the data set on Trypanosoma cruzi [4], 19.9 µM in the data set on Leishmania infantum [5] (setting [12]) and “Not Active” in the data set on Leishmania infantum [7]. Further, the CC50 at 48 h in data set [6] stood at 99.2 µM.

With `CCCCCCCCNCc1ccc(O)cc1`, the “Ratio CC50/IC50” value is listed as 1.4 in [1], 13.1 in data set [8], 0.8 in [2] and 4.3 in data set [9]. The IC50 with Trypanosoma cruzi [3] (setting [13]) was 5.5 µM; in the data set with Trypanosoma cruzi [4] (setting [11]) it was 17 µM; with Leishmania infantum [5] (setting [12]) it was 28.6 µM; in the data set on Leishmania infantum [7] (setting [14]), 1.8 µM. Besides, the half-maximal cytotoxic concentration (CC50) at 48 h in data set [6] worked out at 23.5 µM. Also, the “Ratio IC50” value in the data set on Leishmania infantum [10] worked out at 52.

For `CCCCOC(=O)c1ccc(O)cc1` [BUTYLPARABEN], the IC50 in the data set with Trypanosoma cruzi [3] (setting [13]) is 26.4 µM; in the data set on Trypanosoma cruzi [4], “Not Active”; with Leishmania infantum [5] it was “Not Active”; in the data set with Leishmania infantum [7], “Not Active”. Further, the “Ratio CC50/IC50” value in [9] stood at 6.4. Moreover, in data set [6], the half-maximal cytotoxic concentration (CC50) at 48 h was 168 µM.

With `CCCCCCCC(O)/C=C/c1ccc(O)cc1` (centres undefined), the “Ratio CC50/IC50” value in data set [1] was 8.1; in [2], 0.4. Moreover, the 50% inhibitory concentration (IC50) entry in the data set on Trypanosoma cruzi [3] was “Not Active”; with Trypanosoma cruzi [4] (setting [11]), 6.1 µM; in the data set with Leishmania infantum [5] (setting [12]) it was 125 µM; with Leishmania infantum [7], “Not Active”. Moreover, the CC50 at 48 h in data set [6] was found to be 49.5 µM.
